Results as given in patent publication US20250049800A1, “VCP/p97 INHIBITOR FOR THE TREATMENT OF CANCER” (CASI Pharmaceuticals, Inc., priority 2021, published 2025).
Values joined by “and” are separate entries in the source; they are usually repeats but may differ in a detail not shown here. Equal values may be shown once.

Tests used:
[1] = Phase I study: plasma pharmacokinetics of orally administered Compound 1; assay type: in vivo, human; conditions: for AUC(0-inf) / AUC(0-t) / Cmax / half-life / Tmax: human, plasma, oral
Source text: The study was designed as a multicenter, open-label Phase 1 study of orally administered Compound 1 in participants with R/R AML or participants with R/R intermediate- to high-risk MDS. […] Additional cohorts for participants with R/R intermediate- to high-risk MDS following hypomethylating agents or other AML cohorts may be added at a later time.
Similar dosing may be used in the dose expansion part of the study. […] Additional intensive PK testing is collected for any participants undergoing intra-patient dose escalation.
At the conclusion of the 900 mg QD cohort, subjects were enrolled in cohorts for BID dosing, starting with the 300 mg BID dosing.
Subjects were treated with Compound 1 QD as described in Example 2.
Subjects were treated with Compound 1 QD or BID dosing as described in Example 2 and blood samples were taken from subjects and analyzed as described in Example 3. Tables 16 and 17 show pharmacokinetic analyses for QD dosing for 100 mg, 175 mg, 275 mg, 350 mg, 400 mg and 900 mg cohorts and BID dosing for 300 mg and 350 mg cohorts. Abbreviations in Table 16 and Table 17: AR=Day 4 AUC0-24/Day 1 AUC0-24, NR=not reported; NA=not available. […] FIG. 9 and FIG. 10 show AUC for day 1 and day 4 of dosing with doses between 350-900 mg QD compared with 350 mg BID.

[2] = system: DoTc2 4510 (Uterus/Cervix); experiment: Cell Titer-Glo viability: single agent IC50 and Compound 1 + PARP inhibitor matrix (Bliss); assay type: cell-based; conditions: Homo sapiens, single agent, read-out: Absolute IC50
Experimental: (§1) The PARP inhibitors used for the study were talazoparib, olaparib and niraparib. […] was used as a reference control. […] For each drug agent on its own, IC50 values in each cell line were determined. Interactions of the combinations of Compound 1 and each PARP inhibitor was assessed as follows: […] Cisplatin and culture media were used as positive and negative control, respectively. The combination activities were assessed using CrownSyn software to determine synergy scores by Bliss Independence and Loewe additivity methods. […] Synergy scores calculated by both Bliss independence model and Loewe additivity model (see Greco, […]., Poch, G., Suhnel, J., Kundi, M., & Bodeker, W. (1992). Consensus on concepts and terminology for combined-action assessment: the […] agreement. […] Without being bound by theory, the Bliss independence model is often applied to asses synergy for non-interacting drugs that elicit their responses independently, e.g., by targeting separate pathways, whereas the Loewe additivity model may be more compatible where both drugs have similar modes of action on the same targets or pathways.

IGR-OV1 (Ovary) = experiment: as above; assay type: cell-based; conditions: Homo sapiens, IGROV-1, 72 h, single agent, read-out: Absolute IC50
Experimental: as §1

MX-1 (Breast) = experiment: as above; assay type: cell-based; conditions: single agent, read-out: Absolute IC50
Experimental: as §1

HCC1937 (Breast) = experiment: as above; assay type: cell-based; conditions: Homo sapiens, single agent, read-out: Absolute IC50
Experimental: as §1

[3] = 300 mg, 300 mg BID, Day 1, 1 subject
[4] = 300 mg, 300 mg BID, Day 4, 1 subject
[5] = 350 mg, 350 mg BID, Day 1, Mean
[6] = 350 mg, 350 mg BID, Day 4, Mean

## Cc1cc2c(C(N)=O)cccc2n1-c1nc2c(c(NCc3ccccc3)n1)CCCN2 [Compound 1, 1-(4-(benzylamino)-5,6,7,8-tetrahydropyrido[2,3-d]pyrimidin-2-yl)-2-methyl-1H-indole-4-carboxamide]
[1]; 25 mg to 450 mg QD
  exposure level increases between the doses: generally proportional and linear
[1]; 100 mg QD, Day 1, Mean
  Cmax/Dose: 0.00372 µM/mg
[1]; 350 mg BID vs 600, 750 and 900 mg QD, Day 1
  exposure of BID dosing compared with QD dosing: higher level of exposure
[1]; 450 mg QD, Day 1, Mean
  Cmax/Dose: 0.00481 µM/mg
[1]; 450 mg QD, Day 4, Mean
  AUC0-inf/Dose: 0.0853 µM·h/mg
  AUC(0-t): 35.2 µM·h
[1]; Cohort 1 (25 mg QD), Day 4
  AR: 0.914
[1]; Compound 1 25 mg QD vs CB-5083 40 mg QD
  plasma exposure compared with CB-5083: significantly higher plasma exposure
[1]; between days 1 and 4
  accumulation: No accumulation
[1]; human subjects
  plasma exposure compared with CB-5083: significantly higher plasma exposure than CB-5083
[1]; 100 mg, 100 mg QD, Day 1, Mean
  AUC(0-inf): 1780 ng·h/mL and 4.31 µM·h
  AUC(0-t): 1420 ng·h/mL and 3.43 µM·h
  Cmax: 154 ng/mL and 372 nM
  half-life: 412 min
[1]; 100 mg, 100 mg QD, Day 4, Mean
  AUC(0-inf): 3020 ng·h/mL and 7.32 µM·h
  AUC(0-t): 2750 ng·h/mL and 6.66 µM·h
  Cmax: 356 ng/mL and 861 nM
  Tmax: 2.67 h
  half-life: 470 min
[1]; 175 mg, 175 mg QD, Day 1, Mean
  AUC(0-inf): 5260 ng·h/mL and 12.7 µM·h
  AUC(0-t): 4380 ng·h/mL and 10.6 µM·h
  Cmax: 636 ng/mL
  Tmax: 3.33 h
  half-life: 684 min
[1]; 175 mg, 175 mg QD, Day 4, Mean
  AUC(0-inf): 2950 ng·h/mL and 7.13 µM·h
  AUC(0-t): 8760 ng·h/mL and 21.2 µM·h
  Cmax: 490 ng/mL and 1.19 µM
  Tmax: 13.5 h
  half-life: 361 min
[1]; 275 mg, 275 mg QD, Day 1, Mean
  AUC(0-inf): 4660 ng·h/mL and 11.3 µM·h
  AUC(0-t): 4140 ng·h/mL and 10 µM·h
  Cmax: 679 ng/mL and 1.65 µM
  Tmax: 2.57 h
  half-life: 305 min
[1]; 275 mg, 275 mg QD, Day 4, Mean
  AUC(0-inf): 9660 ng·h/mL and 23.4 µM·h
  AUC(0-t): 9230 ng·h/mL and 22.4 µM·h
  Cmax: 827 ng/mL and 2 µM
  Tmax: 3.6 h
  half-life: 534 min
[1]; [3]
  AUC(0-t): 12200 ng·h/mL and 29.6 µM·h
  Cmax: 965 ng/mL and 2.34 µM
  Tmax: 12 h
[1]; [4]
  AUC(0-inf): 27700 ng·h/mL and 67 µM·h
  AUC(0-t): 27400 ng·h/mL and 66.4 µM·h
  Cmax: 1920 ng/mL and 4.65 µM
  Tmax: 3 h
[1]; [5]
  AUC(0-inf): 29600 ng·h/mL and 71.8 µM·h
  AUC(0-t): 14600 ng·h/mL and 35.3 µM·h
  Cmax: 1340 ng/mL and 3.25 µM
  Tmax: 7.63 h
[1]; [6]
  AUC(0-inf): 31800 ng·h/mL and 77 µM·h
  AUC(0-t): 23400 ng·h/mL and 56.7 µM·h
  Cmax: 2020 ng/mL and 4.89 µM
  Tmax: 3.25 h
[1]; 350 mg, 350 mg QD, Day 1, Mean
  AUC(0-inf): 5330 ng·h/mL and 12.9 µM·h
  AUC(0-t): 5200 ng·h/mL and 12.6 µM·h
  Cmax: 746 ng/mL and 1.81 µM
  Tmax: 3.2 h
  half-life: 269 min
[1]; 350 mg, 350 mg QD, Day 4, Mean
  AUC(0-inf): 8570 ng·h/mL and 20.8 µM·h
  AUC(0-t): 8440 ng·h/mL and 20.4 µM·h
  Cmax: 834 ng/mL and 2.02 µM
  Tmax: 4 h
  half-life: 453 min
[1]; 450 mg, 450 mg QD, Day 1, Mean
  AUC(0-inf): 8860 ng·h/mL and 21.5 µM·h
  AUC(0-t): 8340 ng·h/mL and 20.2 µM·h
  Cmax: 895 ng/mL and 2.17 µM
  Tmax: 3 h
  half-life: 363 min
[1]; 450 mg, 450 mg QD, Day 4, Mean
  AUC(0-inf): 15900 ng·h/mL and 38.4 µM·h
  AUC(0-t): 14500 ng·h/mL
  Cmax: 1350 ng/mL and 3.28 µM
  Tmax: 4 h
  half-life: 577 min
[1]; 600 mg, 600 mg QD, Day 1, Mean
  AUC(0-inf): 6500 ng·h/mL and 15.7 µM·h
  AUC(0-t): 5710 ng·h/mL and 13.8 µM·h
  Cmax: 799 ng/mL and 1.93 µM
  Tmax: 3.6 h
  half-life: 356 min
[1]; 600 mg, 600 mg QD, Day 4, Mean
  AUC(0-inf): 18200 ng·h/mL and 44 µM·h
  AUC(0-t): 17200 ng·h/mL and 41.7 µM·h
  Cmax: 1960 ng/mL and 4.75 µM
  Tmax: 3.4 h
  half-life: 586 min
[1]; 750 mg, 750 mg QD, Day 1, Mean
  AUC(0-inf): 6160 ng·h/mL and 14.9 µM·h
  AUC(0-t): 5960 ng·h/mL and 14.4 µM·h
  Cmax: 796 ng/mL and 1.93 µM
  Tmax: 3.33 h
  half-life: 269 min
[1]; 750 mg, 750 mg QD, Day 4, Mean
  AUC(0-inf): 13200 ng·h/mL and 32.1 µM·h
  AUC(0-t): 12900 ng·h/mL and 31.3 µM·h
  Cmax: 2260 ng/mL and 5.48 µM
  Tmax: 2.5 h
  half-life: 400 min
[1]; 900 mg, 900 mg QD, Day 1, Mean
  AUC(0-inf): 14000 ng·h/mL and 33.9 µM·h
  AUC(0-t): 12300 ng·h/mL and 29.8 µM·h
  Cmax: 1550 ng/mL and 3.76 µM
  Tmax: 2.5 h
  half-life: 343 min
[1]; 900 mg, 900 mg QD, Day 4, Mean
  AUC(0-inf): 27000 ng·h/mL and 65.3 µM·h
  AUC(0-t): 26700 ng·h/mL and 64.6 µM·h
  Cmax: 3220 ng/mL and 7.8 µM
  Tmax: 3.33 h
  half-life: 388 min
[1]; 175 mg QD, Day 1, Mean
  Cmax: 1540 nM
[1]; vs CB-5083 at greater than 200 mg, FIG. 4
  exposures compared with CB-5083: greater than dosing CB-5083 at greater than 200 mg
[2]
  IC50: 513 nM
IGR-OV1 (Ovary)
  IC50: 279 nM
MX-1 (Breast)
  IC50: 409 nM
HCC1937 (Breast)
  IC50: 559 nM
